Reference: patent publication US20200397673A1, “AN ANTIMICROBIAL COMPOSITION” (Conopco, Inc., d/b/a UNILEVER, priority 2017, published 2020)

Test system: M. furfur ATCC 14521
Assay: Antifungal activity (log reduction) on M. furfur
Format: cell-based
Conditions: contact time 24 hr, 10 mg sample in 1000 μL inoculum, 10^5 cells/ml, 32° C.
Procedure: The above samples were subjected to their anti fungal efficacy on M. furfur as described hereinafter.
M. furfur ATCC 14521 strain was revived from glycerol stock on Modified Dixon agar. Plate was at 30° C. for 72 hrs. Approximately 72 hrs prior to testing, the plate culture was inoculated onto the surface of another sterile Modified Dixon agar plate and incubated at 30° C. for approximately 72 hrs. From second subculture, the optical density of culture is adjusted at 620 nm to give cell strength of 10^7 cfu/ml. The culture was further diluted for 100 times to achieve 10^5 cfu/ml in Pityrosporum broth.
1000 μL of M. furfur inocula were added to the above tubes and a blank sterile 1.5 ml Eppendorf tube (no particles as control), respectively so that the load in each tube is 10^5 cells/ml.
All the samples were kept shaken @120 RPM in a shaker incubator at 32° C. After 24 hours incubation, 10 μL of the samples were withdrawn from the respective 1.5 ml Eppendorf tubes and diluted with 990 μL of Pityrosporum broth. This represents 10^−2 dilution. Serial dilution was performed from the above 24 hours inocula and plated 100 μL of dilution onto modified Dixon plate. Plate dilution 10^−2, 10^−3, 10^−4 and 10^−5. All the plates were kept for incubation at 32° C. for 24-72 hrs. Plate count for all the plates were done.

Work on zinc pyrithione [Example B] yielded a Log reduction of 1.58.
